Reference: PubChem BioAssay (NCI)
“And” between values parts separate entries of the source, which are not always exact repeats. Identical values can stand only once.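 Cells were grown in 96-well plates and exposed to each compound for 48 hours at five concentrations; endpoints were interpolated linearly between bracketing concentrations, or set to the highest concentration if not reached. At the GI50, growth is halved. TGI: total growth inhibition.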

What was measured:
Assay in all cases: NCI-60 cell line screen, 48 h
[1] = tested on: A498 renal
[2] = tested on: A549 NSCLC
[3] = tested on: EKVX NSCLC
[4] = tested on: HT29 colon
[5] = tested on: MCF7 breast
[6] = tested on: MDA-MB-231 breast
[7] = tested on: MDA-MB-435
[8] = tested on: NCI-H226 lung
[9] = tested on: NCI-H460 lung
[10] = tested on: OVCAR-8 ovarian
[11] = tested on: PC-3 prostate
[12] = tested on: SF-539 CNS
[13] = tested on: SK-OV-3 ovarian
[14] = tested on: DU-145 prostate

Structure (SMILES)	TGI [1]	TGI [2]	TGI [3]	TGI [4]	TGI [5] [µM]	TGI [6] [µM]	TGI [7] [µM]	TGI [8] [µM]	TGI [9]	TGI [10]	TGI [11] [µM]	TGI [12]	TGI [13]	TGI [14] [µM]	GI50 [14] [µM]	GI50 [4] [µM]	GI50 [6] [µM]	GI50 [7] [µM]	GI50 [8] [µM]
CC(=O)Nc1ccc2[nH]c(-c3cccc(F)c3)cc(=O)c2c1	> 59.8 µM	> 100 µM	> 100 µM	> 100 µM	> 100	> 59.6	3.85	> 75.9	> 100 µM	> 31.6 µM	> 100	6.92 µM	> 100 µM	–	–	–	–	–	–
Cn1c2ccccc2c(=NNc2ccc(C(=O)O)cc2)c2ccccc21	–	38.7 µM	32.2 µM	32.3 µM	26.5	50.1	34.3	54	43.5 µM	33.5 µM	43.9	49.9 µM	56.7 µM	58	–	–	–	–	–
COc1cccc(-c2cc(=O)c3c(C)ccnc3[nH]2)c1	> 77.1 µM	> 100 µM	> 100 µM	> 100 µM	> 100	> 100	–	0.0742	> 34.4 µM	> 100 µM	> 100	–	> 100 µM	–	–	–	–	–	–
CN(C)Cc1cc(N=Nc2ccccc2)cc(CN(C)C)c1O	> 100 µM	> 100 µM	> 100 µM	> 100 µM	–	> 100	> 100	> 100	> 100 µM	> 100 µM	> 100	> 100 µM	> 100 µM	> 100	–	–	–	–	–
CC(C)=CCC/C(C)=C/CC/C(C)=C/CC/C(C)=C/CC/C(C)=C\CC/C(C)=C/CC/C(C)=C/CC/C(C)=C/Cc1cc(O)ccc1O	3.51 µM	> 22.6 µM	8.83 µM	3.81 µM	2.89	> 55.2	–	4.65	12.5 µM	3.42 µM	2.44	3.19 µM	15.6 µM	> 72.9	–	–	–	–	–
COC(=O)c1csc(-c2nc(CCNC(=O)OC(C)(C)C)sc2Br)n1	> 100 µM	> 100 µM	> 100 µM	> 100 µM	> 100	–	> 100	> 100	> 100 µM	> 100 µM	> 100	> 100 µM	> 100 µM	> 100	–	–	–	–	–
COc1ccc(C2S/C(=C\c3ccc(O)cc3)C(=O)N2NC(=O)Cc2ccccc2)cc1 (stereo unspecified)	> 100 µM	> 100 µM	–	> 100 µM	–	–	–	> 100	> 100 µM	> 100 µM	–	> 100 µM	> 100 µM	–	–	–	–	–	–
S=C1N=C(Cl)C2(NN1)c1ccccc1-c1ccccc12	> 10 µM	> 10 µM	> 10 µM	–	> 10	> 10	–	> 10	> 10 µM	> 10 µM	–	> 10 µM	> 10 µM	> 10	–	–	–	–	–
CC(C)=CCSC1CC2C(CC1(C)O)C2(C)C (stereo unspecified)	31.4 µM and 36.2 µM	24.1 µM and 30.2 µM	28.3 µM and 31.4 µM	29 µM and 28.2 µM	–	–	–	27.5	33.7 µM and 27.2 µM	34.3 µM and 27.1 µM	–	32.3 µM and 29.6 µM	28.2 µM and 29.7 µM	–	–	–	–	–	–
C(=C\C(SCc1ccccc1)SCc1ccccc1)/c1ccccc1	> 10 µM	> 10 µM	> 10 µM	> 10 µM	> 10	> 10	–	> 10	> 10 µM	> 10 µM	> 10	> 10 µM	> 10 µM	> 10	–	–	–	–	–
COc1ccc2c3c1OC1c4[nH]c5ccccc5c4CC4(O)C(C2)N(C)CCC314 (stereo unspecified)	31.6 µM	> 100 µM	> 100 µM	49.3 µM	60.4	77.4	35.7	–	50.3 µM	> 100 µM	> 100	–	> 100 µM	> 100	–	–	–	–	–
COC(=O)c1c(C)cccc1CC1Cc2c(C)cccc2C1=O (stereo unspecified)	73.7 µM	> 100 µM	> 100 µM	> 100 µM	–	> 100	65.1	95.8	> 100 µM	> 100 µM	> 100	> 100 µM	> 100 µM	> 100	–	–	–	–	–
COc1ccc(CC2NC(=O)/C=C/CC(C(C)C3OC3c3ccccc3)OC(=O)C(CC(C)C)OC(=O)C(C)CNC2=O)cc1Cl (stereo unspecified)	3.66e-05 µM	> 0.1 µM	–	0.000108 µM	> 0.1	3.5e-05	1.58e-05	0.000127	0.00696 µM	> 0.1 µM	> 0.1	4.43e-05 µM	> 0.1 µM	> 0.1	–	–	–	–	–
c1cc2c(c(-c3c4ccccc4nc4ccccc34)c1)CC1(CC2)OCCO1	> 100 µM	> 100 µM	> 100 µM	–	> 100	> 100	> 100	> 100	> 100 µM	> 100 µM	> 100	> 100 µM	> 100 µM	–	–	–	–	–	–
CCOC(=O)C(NC(=O)Nc1ccc(Cl)c(Cl)c1)C(F)(F)F (stereo unspecified)	> 100 µM	> 100 µM	> 100 µM	> 100 µM	–	–	> 100	–	–	> 100 µM	> 100	> 100 µM	> 100 µM	–	–	–	–	–	–
CC(=O)OCC1=C(C)C(OC(=O)C(OC(C)=O)[C@@H](NC(=O)c2ccccc2)c2ccccc2)CCC1(C)C (stereo partly specified)	> 100 µM	> 100 µM	> 100 µM	> 100 µM	> 100	> 100	> 100	> 100	> 100 µM	> 100 µM	–	> 100 µM	> 100 µM	> 100	–	–	–	–	–
CCN(CC)C(=S)SS(=O)(=O)c1ccc([N+](=O)[O-])cc1	> 100 µM	> 100 µM	> 100 µM	64.7 µM	–	66.4	54.7	> 100	> 100 µM	42.5 µM	–	40 µM	> 100 µM	82.4	27.2	22	25.9	23.2	83.8
